Test results reported in patent US20220235065A1 (Epizyme, Inc., priority 2016, published 2022).
Structures can show the parent of a compound that is named as a salt.

Experiments:
[1] = target: T1, EHMT1 (Homo sapiens, UniProt Q9H9B1); test: EHMT1 PEP (EHMT1 peptide enzyme assay); format: biochemical; conditions: peptide substrate enzyme assay
T1 sequence (Q9H9B1 1-1298): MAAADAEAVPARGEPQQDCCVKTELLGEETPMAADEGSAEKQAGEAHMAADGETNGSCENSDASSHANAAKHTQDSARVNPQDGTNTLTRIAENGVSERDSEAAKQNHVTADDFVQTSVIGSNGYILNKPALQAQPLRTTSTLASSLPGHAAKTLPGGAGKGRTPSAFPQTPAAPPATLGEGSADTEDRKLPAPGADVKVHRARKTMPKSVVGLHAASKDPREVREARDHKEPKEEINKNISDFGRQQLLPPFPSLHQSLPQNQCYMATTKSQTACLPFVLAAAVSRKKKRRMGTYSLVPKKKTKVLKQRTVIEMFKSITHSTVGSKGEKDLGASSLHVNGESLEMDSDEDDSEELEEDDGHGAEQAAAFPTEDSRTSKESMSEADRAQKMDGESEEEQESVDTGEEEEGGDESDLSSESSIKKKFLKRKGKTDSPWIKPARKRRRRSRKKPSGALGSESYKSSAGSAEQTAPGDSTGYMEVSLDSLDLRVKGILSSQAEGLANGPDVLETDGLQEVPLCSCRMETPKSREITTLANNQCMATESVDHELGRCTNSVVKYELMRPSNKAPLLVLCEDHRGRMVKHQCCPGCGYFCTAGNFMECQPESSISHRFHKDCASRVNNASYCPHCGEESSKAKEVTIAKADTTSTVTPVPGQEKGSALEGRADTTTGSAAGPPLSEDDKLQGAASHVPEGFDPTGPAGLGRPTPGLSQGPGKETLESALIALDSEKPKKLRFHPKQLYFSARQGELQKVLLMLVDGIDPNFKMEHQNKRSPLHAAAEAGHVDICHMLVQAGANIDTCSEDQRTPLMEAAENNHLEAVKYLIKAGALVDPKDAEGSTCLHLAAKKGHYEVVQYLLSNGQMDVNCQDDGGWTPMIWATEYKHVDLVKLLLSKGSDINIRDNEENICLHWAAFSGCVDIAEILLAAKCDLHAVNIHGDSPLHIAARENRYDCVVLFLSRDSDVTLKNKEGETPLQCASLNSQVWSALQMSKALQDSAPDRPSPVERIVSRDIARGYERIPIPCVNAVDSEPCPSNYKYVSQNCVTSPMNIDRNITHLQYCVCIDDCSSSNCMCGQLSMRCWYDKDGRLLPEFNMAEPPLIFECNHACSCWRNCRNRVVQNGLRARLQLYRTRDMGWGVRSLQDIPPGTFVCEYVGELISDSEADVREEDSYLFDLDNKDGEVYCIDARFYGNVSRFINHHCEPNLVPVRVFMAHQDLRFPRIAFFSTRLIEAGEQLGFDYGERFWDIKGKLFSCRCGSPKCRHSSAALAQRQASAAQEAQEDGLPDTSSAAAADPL

[2] = tested on: H3K9me2 in MDA-MB-231 cells; test: MDA-MB-231 H3K9me2 in-cell western assay; format: cell-based; conditions: Homo sapiens, read-out: EHMT2 ICW (IC50 μM)
Summary of the method: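 MDA-MB-231 cells (3,000/well) exposed to compound for two consecutive 48 h periods at 37 °C, then fixed and stained for H3K9me2, with DRAQ5 as DNA stain and infrared read at 700/800 nm. Percent inhibition was set between DMSO and UNC0638 control wells. IC50 came from triplicate dose–response fits with a four-parameter model, top 100%, bottom 0%.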

SMILES	IC50 [1]	IC50 [2]
CNc1cc(C)nc(Nc2ccc(OC)c(-c3ccc4cc[nH]c4n3)c2)n1 [Compound 42]	> 10 µM	> 10 µM
CCn1cc(NC(=O)c2cc(Nc3nc(C)cc(NC)n3)ccc2OC)cn1 [Compound 49]	> 10 µM	> 10 µM
CNc1cc(C)nc(Nc2ccc(OC)c(-n3cnc(CN4CC(F)C4)n3)c2)n1 [Compound 68]	> 10 µM	> 10 µM
CNc1cc(C)nc(Nc2ccc(OC)c(-n3cc4c(n3)CCN(C3COC3)C4)c2)n1 [Compound 69]	> 10 µM	> 10 µM
CNc1cc(C)nc(Nc2ccc(OC)c(-n3ncc4c3CN(C(C)=O)CC4)c2)n1 [Compound 75]	> 10 µM	> 10 µM
CNc1cc(C)nc(Nc2ccc(OC)c(-n3nccc3CNC(C)=O)c2)n1 [Compound 76]	> 10 µM	> 10 µM
CNc1cc(C)nc(Nc2ccc(OC)c(-c3nnc4n3CCN(C(=O)OC(C)(C)C)C4)c2)n1 [Compound 77]	> 10 µM	> 10 µM
CNc1cc(C)nc(Nc2ccc(OC)c(-c3nc4c([nH]3)CN(C)CC4)c2)n1 [Compound 79]	1 to 10 µM	> 10 µM
CNc1cc(C)nc(Nc2ccc(OC)c(-n3cc(C)c4c3CCN(C)C4)c2)n1 [Compound 81]	1 to 10 µM	1 to 10 µM
COc1ncc(Nc2nc(C)cc(NCC3COC3)n2)cc1-n1cc(CN(C)C)nn1 [Compound 86]	> 10 µM	> 10 µM
CNc1cc(C)nc(Nc2ccc(OC)c(-c3cc4cnccn4n3)c2)n1 [Compound 93]	1 to 10 µM	> 10 µM
CNc1cc(C)nc(Nc2ccc(OC)c(-n3cc(C)c(CNC(C)=O)n3)c2)n1 [Compound 94]	1 to 10 µM	> 10 µM
CNc1cc(C)nc(Nc2ccc(OC)c(-n3ccc(CNC(C)=O)n3)c2)n1 [Compound 95]	> 10 µM	> 10 µM
CNc1cc(C)nc(Nc2ccc(OC)c(-n3ccc(CN(C)C(C)=O)n3)c2)n1 [Compound 96]	> 10 µM	> 10 µM
CNc1cc(C)nc(Nc2ccc(OC)c(-n3cc4c(C)nccc4n3)c2)n1 [Compound 99]	1 to 10 µM	1 to 10 µM
CNc1cc(C)nc(Nc2ccc(OC)c(-n3cc4c(OC)nccc4n3)c2)n1 [Compound 100]	> 10 µM	1 to 10 µM
CNC(=O)c1cn(-c2cc(Nc3nc(C)cc(NC)n3)ccc2OC)nc1C [Compound 103]	> 10 µM	> 10 µM
CNC(=O)c1cnn(-c2cc(Nc3nc(C)cc(NC)n3)ccc2OC)c1 [Compound 104]	1 to 10 µM	> 10 µM
CNC(=O)c1c(C)nn(-c2cc(Nc3nc(C)cc(NC)n3)ccc2OC)c1C [Compound 105]	> 10 µM	> 10 µM
CNCc1c(C)nn(-c2cc(Nc3nc(C)cc(NC)n3)ccc2OC)c1C [Compound 106]	> 10 µM	> 10 µM
CNc1cc(C2CCOCC2)c2cc(OC)c(-n3cc(CN(C)C)nn3)cc2n1 [Compound 116]	1 to 10 µM	1 to 10 µM
CNC(=O)c1cn(-c2cc(Nc3nc(C)cc(NC)n3)ccc2OC)nn1 [Compound 117]	> 10 µM	> 10 µM
CNc1cc(C)nc(Nc2ccc(OC)c(-n3ncc4ncccc43)c2)n1 [Compound 119]	1 to 10 µM	> 10 µM

Next, values leading:

IC50 [1]	IC50 [2]	SMILES
< 0.1 µM	0.1 to 1 µM	CNc1cc(C)nc(Nc2ccc(OC)c(-n3cc4c(n3)CCN(C)C4)c2)n1 [Compound 2]
0.1 to 1 µM	> 10 µM	CNc1cc(C)nc(Nc2ccc(OC)c(-n3cc4c(n3)CN(C)CC4)c2)n1 [Compound 3]
1 to 10 µM	1 to 10 µM	CNc1cc(C)nc(Nc2ccc(OC)c(-n3ccc(CN4CCCC4)n3)c2)n1 [Compound 4, trifluoroacetic acid]
0.1 to 1 µM	1 to 10 µM	CNc1cc(C)nc(Nc2ccc(OC)c(-n3cc(CN4CCCC4)cn3)c2)n1 [Compound 5, 2-N-[4-methoxy-3-[4-(pyrrolidin-1-ylmethyl)-1H-pyrazol-1-yl]phenyl]-4-N,6-dimethylpyrimidine-2,4-diamine]
1 to 10 µM	> 10 µM	CNc1cc(C)nc(Nc2ccc(OC)c(-n3cc4ccncc4n3)c2)n1 [Compound 41]
1 to 10 µM	> 10 µM	CNc1cc(C)nc(Nc2ccc(OC)c(-n3cc4c(n3)CCOC4)c2)n1 [Compound 43]
1 to 10 µM	> 10 µM	CNc1cc(C)nc(Nc2ccc(OC)c(-c3nc4cnccc4[nH]3)c2)n1 [Compound 47]
< 0.1 µM	1 to 10 µM	CNc1cc(C)nc(Nc2ccc(OC)c(-c3cc4cnccc4[nH]3)c2)n1 [Compound 48]
0.1 to 1 µM	> 10 µM	CNc1cc(C)nc(Nc2cnc(OC)c(-n3cc4c(n3)CCNC4)c2)n1 [Compound 50]
1 to 10 µM	> 10 µM	CNc1cc(C)nc(Nc2ccc(OC)c(-n3cc4c(n3)CCCN4)c2)n1 [Compound 56, N2-(4-methoxy-3-(4,5,6,7-tetrahydro-2H-pyrazolo[4,3-b]pyridin-2-yl)phenyl)-N4,6-dimethylpyrimidine-2,4-diamine hydrochloride]
0.1 to 1 µM	1 to 10 µM	CNc1cc(C)nc(Nc2cnc(OC)c(-n3cc4c(n3)CCN(C)C4)c2)n1 [Compound 57]
1 to 10 µM	1 to 10 µM	CNc1cc(C)nc(Nc2cnc(OC)c(-c3nc4cnccn4n3)c2)n1 [Compound 60]
1 to 10 µM	> 10 µM	CNc1cc(C)nc(Nc2ccc(OC)c(-n3cnc(CN(C)C)n3)c2)n1 [Compound 61]
1 to 10 µM	> 10 µM	CNc1cc(C)nc(Nc2cnc(OC)c(-n3cnc(CN(C)C)n3)c2)n1 [Compound 62]
1 to 10 µM	> 10 µM	CNc1cc(C)nc(Nc2cc(-n3cc4c(n3)CCN(C)C4)c(OC)cn2)n1 [Compound 65]
< 0.1 µM	0.1 to 1 µM	CNc1cc(C)nc(Nc2ccc(OC)c(-n3cc(CN(C)C)nn3)c2)n1 [Compound 66]
1 to 10 µM	> 10 µM	CNc1cc(C)nc(Nc2ccc(OC)c(-n3cnc(CN4CCC4)n3)c2)n1 [Compound 67]
0.1 to 1 µM	1 to 10 µM	CCN1CCc2nn(-c3cc(Nc4nc(C)cc(NC)n4)ccc3OC)cc2C1 [Compound 70]
1 to 10 µM	> 10 µM	CNc1cc(C)nc(Nc2ccc(OC)c(-c3nnc(CN(C)C)[nH]3)c2)n1 [Compound 73]
< 0.1 µM	0.1 to 1 µM	CNc1cc(C)nc(Nc2cnc(OC)c(-n3cc(CN(C)C)cn3)c2)n1 [Compound 74]
1 to 10 µM	> 10 µM	CNc1cc(C)nc(Nc2ccc(OC)c(-c3nc4c([nH]3)CNCC4)c2)n1 [Compound 78]
0.1 to 1 µM	1 to 10 µM	CNc1cc(C)nc(Nc2ccc(OC)c(-n3cc4c(n3)CCN(C3CC3)C4)c2)n1 [Compound 82]
< 0.1 µM	0.1 to 1 µM	CNC(=O)CCNc1cc(C)nc(Nc2ccc(OC)c(-n3cc4c(n3)CCN(C)C4)c2)n1 [Compound 87]
0.1 to 1 µM	> 10 µM	CNC(=O)N1CC(CNc2cc(C)nc(Nc3ccc(OC)c(-n4cc5c(n4)CCN(C)C5)c3)n2)C1 [Compound 88]
0.1 to 1 µM	1 to 10 µM	CNc1cc(C)nc(Nc2ccc(OC)c(-n3cc(C)c(CN(C)C)n3)c2)n1 [Compound 102]
< 0.1 µM	< 0.1 µM	CNc1cc(C)nc(Nc2ccc(OC)c(-n3cc(CN(C)C)cn3)c2)n1 [Compound 109, N2-(3-(4-((dimethylamino)methyl)-1H-pyrazol-1-yl)-4-methoxyphenyl)-N4,6-dimethylpyrimidine-2,4-diamine]
< 0.1 µM	0.1 to 1 µM	CNc1cc(C)nc(Nc2ccc(OC)c(-n3ncc4c3CCNC4)c2)n1 [Compound 113, N2-(4-methoxy-3-(4,5,6,7-tetrahydro-1H-pyrazolo[4,3-c]pyridin-1-yl)phenyl)-N4,6-dimethylpyrimidine-2,4-diamine]
